# According to article PMC5472792, “Bub1 positions Mad1 close to KNL1 MELT repeats to promote checkpoint signalling” (Nature Communications, 2017):
# Assays:
# Strep-Mad1 597–718 = experiment: Strep-Tactin pull-down of FLAG-Bub1/Bub3 with Strep-Mad1; design: species or system human; details: Strep-Mad1 597–718, 30 min at 30 °C, FLAG western blot, three independent experiments, WT binding set to 1
# Description: Figure 3 Bub1 directly interacts with Mad1. (a) Nocodazole arrested HeLa cells stably expressing the indicated Mad1-BirA or BirA-Mad1 fusion protein at near endogenous levels were analyzed 16 h after induction with doxycyclin with or without exposure to 25 μM biotin. Biotinylated proteins were precipitated with streptavidin beads and visualized by western blot using fluorescently labelled streptavidin. (In: input and IP: purified biotinylated proteins) (b) A single SILAC mass spectrometry experiment was performed to determine the ratios of proteins isolated with streptavidin beads from Mad1-BirA versus BirA-Mad1 expressing cell lines respectively. The obtained SILAC ratio for a number of SAC and kinetochore proteins is indicated as well as a number of NPC proteins (c) Experiment as in a,b, but analysed by western blot for the indicated proteins (representative of at least two independent experiments) (d) Strep-Mad1 incubated with FLAG-Bub1 146–553/Bub3 complex (WT) or FLAG-Bub1 146–553ΔCD1/Bub3 complex (ΔCD1) was captured by Strep-Tactin beads and following washing bound proteins were released. Bound Bub1 protein was detected by blotting for FLAG. (e) Quantification of three independent experiments as in d with WT binding set to 1. Mean and s.e.m. shown. […]
# Cdc20 = experiment: In vitro binding of Mad1 to Cdc20 in the presence of Mps1; details: purified Cdc20 1 uM, Mad1 2 uM, Mps1 present, n=5
# Description: See also our comment to reviewer 1. We have now directly tested the binding of Mad1 to CD1 peptides with mutated I471D and the MFQ/RKK mutations and the […]
# 3. In Figure 5, the authors pointed out a direct role of Mad1 that is independent of Bub1 binding. This observation is consistent with the two recently published […]
# independent function is through a phosphorylation-dependent direct interaction between Mad1 and Cdc20. The authors should test if Mad1 E710/F712 works together with phosphorylated T716 to bind with Cdc20.
# We have extensively tried to see if we can get purified Cdc20 and Mad1 C-term (597-718) to bind in the presence of Mps1. Despite numerous attempts (n=5) we […]
# Our Mps1 preparation is active based on its ability to phosphorylate a KNL1 fragment and we see clear binding of BubR1 under these conditions. We have analyzed SAC strength in Cdc20 del26-37 and monitored MCC formation and these assays support the amino acids 26-37 of Cdc20 are required for an efficient SAC and MCC formation as […]
# therefore not test if Mad1 E710/F712 is defective in Cdc20 binding. […]
# We have measured the affinity of the double phosphorylated peptide for Mad1 (597-718) and included this in the revised manuscript (Figure 4A, C in revised […]
# phosphorylated peptide and the double phosphorylated peptide (16 uM versus 32 um). Please note that the DP responses measured in the ITC of Ji et al are very […]
binding to Mad1 (Strep-Mad1 597–718),binding to Cdc20 (Cdc20),Molecule
prevented this interaction,–,"FLAG-Bub1 146–553 ΔCD1/Bub3: complex lacking CD1, purified from HEK293 cells"
–,cannot detect any binding,"Mad1 C-term (597-718): recombinant Mad1 C-terminal fragment (protein, left off: His, end not stated, state not stated | Strep, end not stated, kept, recombinant Mad1 C-terminal fragment) SSKEVAELKKQVESAELKNQRLKEVFQTKIQEFRKACYTLTGYQIDITTENQYRLTSLYAEHPGDCLIFKATSPSGSKMQLLETEFSHTVGELIEVHLRRQDSIPAFLSSLTLELFSRQTVA"
